{"source": "patent US12370180B2", "about": "“P38 map kinase inhibitors for treating Friedreich's ataxia” (THE TRUSTEES OF THE UNIVERSITY OF PENNYSLVANIA, priority 2015, dated 2025)", "molecules": {"B1": {"name": "gFA2: hit shRNA (also used as siRNA) from random shRNA library, SEQ ID No: 1 (nucleic acid)", "chain": "GCCAATCGGGGAGGTCGGCGCATATCATGCTAAACCATGATATGCGCCGACCTCCCCGATTGGC"}, "B2": {"name": "gFA2.8: gFA2-variant clone with 5 mutations compared to gFA2, SEQ ID No: 9 (nucleic acid)", "chain": "GCCCCTCGGGCAGGTCGGCGAATATCATGCTAAACTATGATATGCGCCGACCTCCCCGATTGGC", "modifications": "expressed or natural sequence"}, "B3": {"name": "gFA2.10: gFA2-variant clone, SEQ ID No: 10 (nucleic acid)", "chain": "GCCCCTCGGGCAGGTCGGCGAATATCATGCTAAACTATGATATGCGCCGACCTTCCCGATTGGC", "modifications": "expressed or natural sequence"}}, "format_in_all_cases": "cell-based, human", "key": {"primary FA fibroblasts": {"tested_on": "primary FA fibroblasts", "test": "Growth of primary FA fibroblasts in beta-hydroxybutyrate (BHB) based mitochondrial stress medium", "settings": "for reversal of the slow-growth phenotype (growth defect) of primary FA fibroblasts: beta-hydroxybutyrate-based media", "experimental": "The data shown are the means of triplicate samples+/−one SD. ***p<0.005. (C) Survival of normal control fibroblasts (GM8402) and FA fibroblasts (GM4078) in DMEM plus BHB after 12 days in culture. ***p<0.005. […] Cells were seeded at 80,000 cells per 100 mm dish and were kept sub-confluent. The data shown are the means of triplicate samples+/−one SD. ***p<0.005.\nFA 3665B cells were infected with gFA2 (squares), gFA11 (diamonds) or a random clone (C3) (triangles). Cells were then sorted and GFP-positive cells were grown in DMEM plus BHB 5 mM (FIG. 4A) or in DMEM plus 5 mM glucose (FIG. 4B) ***=p […].\nFA is caused by intronic trinucleotide repeat expansions that decrease expression of frataxin, a protein involved in mitochondrial iron-sulfur-cluster biogenesis. Clones were selected that reverse the slow-growth phenotype of primary FA fibroblasts in media with beta-hydroxybutyrate, a carbon source that particularly stresses cells with mitochondrial dysfunction (FIGS. 1 and 3). Among several clones identified, two clones have been tested and confirmed (FIG. 4): “Clone 2” (also referred to as gFA2) and “Clone 11” (also referred to as gFA11). The DNA coding strand for the shRNA sequences of those two […] (gFA2 and gFA11) are provided below, with the loop-encoding sequences in brackets. The shRNAs themselves are RNA versions of these sequences, with T changed to U.\nThese experiments have been repeated several times, over 4 days, 7 days, and 10 days, with the same results. Therefore, random shRNA screening can be combined with bioinformatic pattern matching to identify conventional chemical-compound therapeutic candidates, and potential therapeutic target proteins."}, "cytokine secretion": {"tested_on": "cytokine secretion", "test": "Cytokine secretion into media of FA cells, measured by ELISA", "settings": "media of FA cells expressing clone vs gFA11-Mut1", "excerpt": "FIGS. 9A and 9B show the effect of gFA11 and gFA11-Mut1 shRNA sequences on the secretion of cytokines as measured by ELISA. […] These secretion patterns matched the expression changes seen on microarray analysis of mRNAs of the same cytokines.\n(§1) Of relevance, it has been shown that silencing of the FA disease gene induces a senescence phenotype. […] Finally, gene-expression analyses of cells expressing Clone 11 also indicated an up-regulation of genes involved in DNA repair."}, "frataxin": {"tested_on": "frataxin", "test": "Frataxin expression in primary FA fibroblasts", "settings": "vector-expressed shRNA or 10 nM transfected siRNA, BHB medium", "experimental": "Frataxin expression in GM3816 cells infected with gFA2 vs. a random clone (C3) (FIG. 5A) and in GM3665B cells transfected with 10 nM gFA2 siRNA or a random clone (C3) (FIG. 5B). Cells were transfected every 3-4 days for two weeks and kept in BHB medium after the first transfection. ***=p value<0.005\nFIG. 6: Hit-optimization of clone gFA2. A sub-library of ˜3000 sequences was constructed, each with a limited number of random mutations compared to gFA2. This sub-library was screened as described previously and two gFA2-variant clones, gFA2.8 and gFA2.10, were identified. […] (Cells were transfected every two days for one week and kept in DMEM plus 5 mM BHB after the first transfection. ***=p value<0.005). gFA2.8 has 5 mutations compared to gFA2; as a result, there are 5 mismatched bases in the hairpin structure."}, "GM3816 cells": {"tested_on": "GM3816 cells", "test": "Sensitivity of FA cells to ionizing (gamma) radiation", "settings": "0.6 Gy irradiation", "excerpt": "as §1"}}, "note": "“Also recorded” adds a separate entry of the source.", "data": [{"molecule": "Cc1ccc(-n2nc(C(C)(C)C)cc2NC(=O)NCc2cc(F)ccc2Oc2ccc3c(cnn3CCO)c2)cc1", "note": "[ARRY-614, pexmetinib]", "values": [{"measurement": "reversal of the slow-growth phenotype (growth defect) of primary FA fibroblasts", "setting": "primary FA fibroblasts", "value": "reversal of the growth defect"}]}, {"molecule": "Cc1ccc(-n2nc(C(C)(C)C)cc2NC(=O)Nc2ccc(OCCN3CCOCC3)c3ccccc23)cc1", "note": "[BIRB-796, doramapimod]", "values": [{"measurement": "reversal of the slow-growth phenotype (growth defect) of primary FA fibroblasts", "setting": "primary FA fibroblasts", "value": "recapitulate the phenotype induced by Clone 11; also recorded: reverses the growth defect"}]}, {"molecule": "Cc1c(F)cc(C(=O)NC2CC2)cc1-c1ccc(C(=O)NCC(C)(C)C)cn1", "note": "[GW-856553, losmapimod]", "values": [{"measurement": "reversal of the slow-growth phenotype (growth defect) of primary FA fibroblasts", "setting": "primary FA fibroblasts", "value": "reversal of the growth defect"}]}, {"molecule": "CNC(=O)c1ccc(C)c(-n2c(C)cc(OCc3ccc(F)cc3F)c(Br)c2=O)c1", "note": "[PH-797804]", "values": [{"measurement": "reversal of the slow-growth phenotype (growth defect) of primary FA fibroblasts", "setting": "primary FA fibroblasts", "value": "reversal of the growth defect"}]}, {"molecule": "Oc1ccc(-c2nc(-c3ccncc3)c(-c3ccc(F)cc3)[nH]2)cc1", "note": "[SB-202190]", "values": [{"measurement": "reversal of the slow-growth phenotype (growth defect) of primary FA fibroblasts", "setting": "primary FA fibroblasts", "value": "recapitulate the phenotype induced by Clone 11; also recorded: reversal of the growth defect"}]}, {"molecule": "C[S+]([O-])c1ccc(-c2nc(-c3ccncc3)c(-c3ccc(F)cc3)[nH]2)cc1", "note": "(centres unmarked) [SB-203580]", "values": [{"measurement": "reversal of the slow-growth phenotype (growth defect) of primary FA fibroblasts", "setting": "primary FA fibroblasts", "value": "recapitulates the phenotype induced by Clone 11; also recorded: reverses the growth defect"}, {"measurement": "reversal of the slow-growth phenotype (growth defect) of primary FA fibroblasts", "setting": "primary FA fibroblasts; listed as SB203580", "value": "increase the growth of FA cells in a dose-dependent manner"}]}, {"molecule": "NC(=O)c1ccc(N(C(N)=O)c2c(F)cccc2F)nc1-c1ccc(F)cc1F", "note": "[VX-702]", "values": [{"measurement": "increased growth", "setting": "primary FA fibroblasts; at 500 nM, p=0.02", "value": 1.2, "unit": "fold"}, {"measurement": "reversal of the slow-growth phenotype (growth defect) of primary FA fibroblasts", "setting": "primary FA fibroblasts", "value": "recapitulate the phenotype induced by Clone 11; also recorded: reversal of the growth defect"}]}, {"molecule": "O=c1ncn2nc(Sc3ccc(F)cc3F)ccc2c1-c1c(Cl)cccc1Cl", "note": "[VX-745]", "values": [{"measurement": "reversal of the slow-growth phenotype (growth defect) of primary FA fibroblasts", "setting": "primary FA fibroblasts", "value": "reversal of the growth defect"}]}, {"molecule": "gFA11-Mut1: version of Clone 11 with a point mutation in the seed sequence, SEQ ID No: 5 and 6 (chain 1 AACACAAUGGAAGAGUGCUGGGUDGDG; chain 2 UGUUGUGUUACCUUCUCACGACCCACC; listed as RNA, chemistry not fully specified; one strand is listed 3' to 5')", "values": [{"measurement": "reversal of the slow-growth phenotype (growth defect) of primary FA fibroblasts", "setting": "primary FA fibroblasts", "value": "diminished; also recorded: the growth-enhancement phenotype of gFA11 is affected"}]}, {"molecule": "gFA11: hit shRNA from random library, SEQ ID No: 2; siRNA version SEQ ID No: 3 and 4 (chain 1 AACAGAAUGGAAGAGUGCUGGGUDGDG; chain 2 UGUUGUCUUACCUUCUCACGACCCACC; listed as RNA, chemistry not fully specified; one strand is listed 3' to 5')", "values": [{"measurement": "reversal of the slow-growth phenotype (growth defect) of primary FA fibroblasts", "setting": "primary FA fibroblasts", "value": "increase the growth of FA fibroblasts; also recorded: growth-enhancing effect; also recorded: recapitulate the phenotype induced by the corresponding shRNA sequence"}, {"measurement": "reversal of the slow-growth phenotype (growth defect) of primary FA fibroblasts", "setting": "primary FA fibroblasts; listed as Clone 11", "value": "more effective than Clone 2"}, {"measurement": "GM-CSF secretion", "setting": "cytokine secretion; p<0.001", "value": "decreases"}, {"measurement": "VEGF secretion", "setting": "cytokine secretion; p<0.001", "value": "decreases"}, {"measurement": "IL8 (IL-8) secretion", "setting": "cytokine secretion; p=0.001", "value": "decreases"}, {"measurement": "GRO secretion", "setting": "cytokine secretion; p=0.003", "value": "decreases"}, {"measurement": "MCP-1 secretion", "setting": "cytokine secretion; p=0.005", "value": "decreases"}, {"measurement": "IL1-beta (IL-1-beta) secretion", "setting": "cytokine secretion; p=0.01", "value": "decreases"}, {"measurement": "IP-10 secretion", "setting": "cytokine secretion; p=0.01", "value": "decreases"}, {"measurement": "RANTES secretion", "setting": "cytokine secretion; p=0.04", "value": "decreases"}, {"measurement": "IL6 (IL-6) secretion", "setting": "cytokine secretion; p=0.09", "value": "decreases"}, {"measurement": "frataxin expression", "setting": "frataxin", "value": "does not increase frataxin expression"}, {"measurement": "cell susceptibility to gamma irradiation", "setting": "GM3816 cells", "value": "are able to recover"}, {"measurement": "cell susceptibility to gamma irradiation", "setting": "GM3816 cells; listed as Clone 11", "value": "protective"}]}, {"molecule": "ralimetinib dimesylate [LY-2228820]", "values": [{"measurement": "increased growth", "setting": "primary FA fibroblasts; at 50 nM, p<0.005", "value": 1.6, "unit": "fold"}, {"measurement": "reversal of the slow-growth phenotype (growth defect) of primary FA fibroblasts", "setting": "primary FA fibroblasts", "value": "recapitulate the phenotype induced by Clone 11; also recorded: reversal of the growth defect"}]}, {"molecule": "B1", "values": [{"measurement": "reversal of the slow-growth phenotype (growth defect) of primary FA fibroblasts", "setting": "primary FA fibroblasts", "value": "increase the growth of FA fibroblasts"}, {"measurement": "frataxin expression", "setting": "frataxin", "value": "increases frataxin expression"}, {"measurement": "frataxin expression", "setting": "frataxin; listed as Clone 2", "value": "partially reverses the decreased expression of frataxin"}]}, {"molecule": "B2", "values": [{"measurement": "frataxin expression", "setting": "frataxin", "value": "more efficacious"}]}, {"molecule": "B3", "values": [{"measurement": "frataxin expression", "setting": "frataxin", "value": "more efficacious"}]}]}
